Structures can show the parent of a compound that is named as a salt. Values belong to the compound of their own block, whether it stands above or below them.
How the values were obtained:
NCI-H460 or M14 cells = test: in vitro antiproliferation assay (cell line not stated for the salt); format: cell-based; conditions: Homo sapiens, HCl salt
Protocol: For the antiproliferation assay, NCI-H460 (large cell lung carcinoma) or M14 (amelanotic melanoma) cells were grown in RPMI-1640 with 10% FBS supplemented with L-glutamine and HEPES. Cells were seeded into 96-well plates at 5×10^2 to 5×10^4 cells/well and allowed to adhere overnight; the medium was then removed. A stock solution of test compound in DMSO was diluted in medium to generate a series of working solutions. Aliquots (100 μl) of the working solutions were then added to the appropriate test wells to expose cells to the final concentrations of compound in a total volume of 100 μl. Seven different concentrations were tested, with 2-5 wells per concentration. Camptothecin was used as a positive control; wells containing vehicle without compound were used as negative controls. Plates were kept for 72 h in a 37° C., 5% CO2 incubator. After incubation, viable cells were detected with the CELLTITER 96 AQueous Non-Radioactive Cell Proliferation Assay (Promega), and IC50 values were determined using GraphPad Prism 5 software.
As stated herein, the invention also includes compounds and their salts. The HCl salt of compound 66 was prepared, and the salt retained activity in the in vitro antiproliferation assay (IC50 5-7 μM).

SK-OV-3 cells = test: NCI-60 panel antiproliferation, SK-OV-3; format: cell-based, human; conditions: NCI 60-cell panel
Protocol: (§1) Bifidenone and Compound 37 were tested for antiproliferation activity against the NCI-60 panel of cancer cell lines. COMPARE analysis was then conducted to compare the activity “fingerprint” of bifidenone to those of known classes of compounds (Zhou, B.-N., Hoch, J. M., Johnson, R. K., Mattern, M. R., Eng, W.-K., Ma, J., Hecht, S. M., Newman, D. J., Kingston, D. G. I., 2000. Use of COMPARE Analysis to Discover New Natural Product Drugs: Isolation of Camptothecin and 9-Methoxycamptothecin from a New Source. Journal of Natural Products 63, 1273-1276.).

786-0 cells = test: NCI-60 panel antiproliferation, 786-0; format: cell-based, human; conditions: NCI 60-cell panel
Protocol: as §1

RXF-393 cells = test: NCI-60 panel antiproliferation, RXF-393; format: cell-based, human; conditions: NCI 60-cell panel
Protocol: as §1

MDA-MB-435 cells = test: NCI-60 panel antiproliferation, MDA-MB-435; format: cell-based, human; conditions: NCI 60-cell panel
Protocol: as §1

UACC-62 cells = test: NCI-60 panel antiproliferation, UACC-62; format: cell-based, human; conditions: NCI 60-cell panel
Protocol: as §1

NCI-H226 cells = test: NCI-60 panel antiproliferation, NCI-H226; format: cell-based, human; conditions: NCI 60-cell panel
Protocol: as §1

HOP-92 cells = test: NCI-60 panel antiproliferation, HOP-92; format: cell-based, human; conditions: NCI 60-cell panel
Protocol: as §1

MCF-7 cells = test: NCI-60 panel antiproliferation, MCF-7; format: cell-based, human; conditions: NCI 60-cell panel
Protocol: as §1

SNB-19 cells = test: NCI-60 panel antiproliferation, SNB-19; format: cell-based, human; conditions: NCI 60-cell panel
Protocol: as §1

SN12C cells = test: NCI-60 panel antiproliferation, SN12C; format: cell-based, human; conditions: NCI 60-cell panel
Protocol: as §1

MOLT-4 cells = test: NCI-60 panel antiproliferation, MOLT-4; format: cell-based, human; conditions: NCI 60-cell panel
Protocol: as §1

UO-31 cells = test: NCI-60 panel antiproliferation, UO-31; format: cell-based, human; conditions: NCI 60-cell panel
Protocol: as §1

OVCAR-5 cells = test: NCI-60 panel antiproliferation, OVCAR-5; format: cell-based, human; conditions: NCI 60-cell panel
Protocol: as §1

SF-268 cells = test: NCI-60 panel antiproliferation, SF-268; format: cell-based, human; conditions: NCI 60-cell panel
Protocol: as §1

SNB-75 cells = test: NCI-60 panel antiproliferation, SNB-75; format: cell-based, human; conditions: NCI 60-cell panel
Protocol: as §1

A549 cells = test: NCI-60 panel antiproliferation, A549; format: cell-based, human; conditions: NCI 60-cell panel
Protocol: as §1

TK-10 cells = test: NCI-60 panel antiproliferation, TK-10; format: cell-based, human; conditions: NCI 60-cell panel
Protocol: as §1

NCI-H322M cells = test: NCI-60 panel antiproliferation, NCI-H322M; format: cell-based, human; conditions: NCI 60-cell panel
Protocol: as §1

HCC-2998 cells = test: NCI-60 panel antiproliferation, HCC-2998; format: cell-based, human; conditions: NCI 60-cell panel
Protocol: as §1

KM12 cells = test: NCI-60 panel antiproliferation, KM12; format: cell-based, human; conditions: NCI 60-cell panel
Protocol: as §1

ACHN cells = test: NCI-60 panel antiproliferation, ACHN; format: cell-based, human; conditions: NCI 60-cell panel
Protocol: as §1

BT-549 cells = test: NCI-60 panel antiproliferation, BT-549; format: cell-based, human; conditions: NCI 60-cell panel
Protocol: as §1

MDA-MB-231 cells = test: NCI-60 panel antiproliferation, MDA-MB-231; format: cell-based, human; conditions: NCI 60-cell panel
Protocol: as §1

SF-539 cells = test: NCI-60 panel antiproliferation, SF-539; format: cell-based, human; conditions: NCI 60-cell panel
Protocol: as §1

NCI-H460 cells = test: NCI-60 panel antiproliferation, NCI-H460; format: cell-based, human; conditions: NCI 60-cell panel
Protocol: as §1

SK-Mel-5 cells = test: NCI-60 panel antiproliferation, SK-MEL-5; format: cell-based, human; conditions: NCI 60-cell panel
Protocol: as §1

COLO205 cells = test: NCI-60 panel antiproliferation, COLO205; format: cell-based, human; conditions: NCI 60-cell panel
Protocol: as §1

NCI-H23 cells = test: NCI-60 panel antiproliferation, NCI-H23; format: cell-based, human; conditions: NCI 60-cell panel
Protocol: as §1

A498 cells = test: NCI-60 panel antiproliferation, A498; format: cell-based, human; conditions: NCI 60-cell panel
Protocol: as §1

OVCAR-4 cells = test: NCI-60 panel antiproliferation, OVCAR-4; format: cell-based, human; conditions: NCI 60-cell panel
Protocol: as §1

SK-MEL-28 cells = test: NCI-60 panel antiproliferation, SK-MEL-28; format: cell-based, human; conditions: NCI 60-cell panel
Protocol: as §1

SW-620 cells = test: NCI-60 panel antiproliferation, SW-620; format: cell-based, human; conditions: NCI 60-cell panel
Protocol: as §1

M14 cells = test: NCI-60 panel antiproliferation, M14; format: cell-based, human; conditions: NCI 60-cell panel
Protocol: as §1

HT29 cells = test: NCI-60 panel antiproliferation, HT29; format: cell-based, human; conditions: NCI 60-cell panel
Protocol: as §1

OVCAR-8 cells = test: NCI-60 panel antiproliferation, OVCAR-8; format: cell-based, human; conditions: NCI 60-cell panel
Protocol: as §1

SK-Mel-2 cells = test: NCI-60 panel antiproliferation, SK-MEL-2; format: cell-based, human; conditions: NCI 60-cell panel
Protocol: as §1

T-47D cells = test: NCI-60 panel antiproliferation, T-47D; format: cell-based, human; conditions: NCI 60-cell panel
Protocol: as §1

NCI-ADR/RES cells = test: NCI-60 panel antiproliferation, NCI-ADR/RES; format: cell-based, human; conditions: NCI 60-cell panel
Protocol: as §1

K-562 cells = test: NCI-60 panel antiproliferation, K-562; format: cell-based, human; conditions: NCI 60-cell panel
Protocol: as §1

HCT-116 cells = test: NCI-60 panel antiproliferation, HCT-116; format: cell-based, human; conditions: NCI 60-cell panel
Protocol: as §1

SF-295 cells = test: NCI-60 panel antiproliferation, SF-295; format: cell-based, human; conditions: NCI 60-cell panel
Protocol: as §1

UACC-257 cells = test: NCI-60 panel antiproliferation, UACC-257; format: cell-based, human; conditions: NCI 60-cell panel
Protocol: as §1

HOP-62 cells = test: NCI-60 panel antiproliferation, HOP-62; format: cell-based, human; conditions: NCI 60-cell panel
Protocol: as §1

OVCAR-3 cells = test: NCI-60 panel antiproliferation, OVCAR-3; format: cell-based, human; conditions: NCI 60-cell panel
Protocol: as §1

U251 cells = test: NCI-60 panel antiproliferation, U251; format: cell-based, human; conditions: NCI 60-cell panel
Protocol: as §1

Hs578T cells = test: NCI-60 panel antiproliferation, Hs578T; format: cell-based, human; conditions: NCI 60-cell panel
Protocol: as §1

MALME-3M cells = test: NCI-60 panel antiproliferation, MALME-3M; format: cell-based, human; conditions: NCI 60-cell panel
Protocol: as §1

SR cells = test: NCI-60 panel antiproliferation, SR; format: cell-based, human; conditions: NCI 60-cell panel
Protocol: as §1

Caki-1 cells = test: NCI-60 panel antiproliferation, Caki-1; format: cell-based, human; conditions: NCI 60-cell panel
Protocol: as §1

NCI-H522 cells = test: NCI-60 panel antiproliferation, NCI-H522; format: cell-based, human; conditions: NCI 60-cell panel
Protocol: as §1

HL-60 cells = test: NCI-60 panel antiproliferation, HL-60; format: cell-based, human; conditions: NCI 60-cell panel
Protocol: as §1

IGR-OV1 cells = test: NCI-60 panel antiproliferation, IGR-OV1; format: cell-based, human; conditions: NCI 60-cell panel
Protocol: as §1

CCRF-CEM cells = test: NCI-60 panel antiproliferation, CCRF-CEM; format: cell-based, human; conditions: NCI 60-cell panel
Protocol: as §1

HCT-15 cells = test: NCI-60 panel antiproliferation, HCT-15; format: cell-based, human; conditions: NCI 60-cell panel
Protocol: as §1

DU-145 cells = test: NCI-60 panel antiproliferation, DU-145; format: cell-based, human; conditions: NCI 60-cell panel
Protocol: as §1

RPMI-8226 cells = test: NCI-60 panel antiproliferation, RPMI-8226; format: cell-based, human; conditions: NCI 60-cell panel
Protocol: as §1

PC-3 cells = test: NCI-60 panel antiproliferation, PC-3; format: cell-based, human; conditions: NCI 60-cell panel
Protocol: as §1

MDA-MB-468 cells = test: NCI-60 panel antiproliferation, MDA-MB-468; format: cell-based, human; conditions: NCI 60-cell panel
Protocol: as §1

EKVX cells = test: NCI-60 panel antiproliferation, EKVX; format: cell-based, human; conditions: NCI 60-cell panel
Protocol: as §1

LOX IMVI cells = test: NCI-60 panel antiproliferation, LOX IMVI; format: cell-based, human; conditions: NCI 60-cell panel
Protocol: as §1

- IC50 (NCI-H460 or M14 cells): 5000 to 7000 nM
Structure (SMILES): COc1cc(F)c(C[C@H](C)[C@]23C[C@H](Cc4ccncc4)C(=O)C=C2OCO3)cc1O [HCl salt of compound 66, (6S,7aR)-7a-((S)-1-(2-fluoro-5-hydroxy-4-methoxyphenyl)propan-2-yl)-6-(pyridin-4-ylmethyl)-7,7a-dihydrobenzo[d][1,3]dioxol-5(6H)-one hydrochloride]

Structure (SMILES): C=CC[C@H]1C[C@]2([C@@H](C)Cc3ccc(OC)c(OC)c3)OCOC2=CC1=O [bifidenone, Bifidenone]
- IC50 (SK-OV-3 cells): 270 nM
- IC50 (786-0 cells): 320 nM
- IC50 (RXF-393 cells): 780 nM
- IC50 (MDA-MB-435 cells): 70 nM
- IC50 (UACC-62 cells): 140 nM
- IC50 (NCI-H226 cells): 810 nM
- IC50 (HOP-92 cells): 240 nM
- IC50 (MCF-7 cells): 170 nM
- IC50 (SNB-19 cells): 300 nM
- IC50 (SN12C cells): 330 nM
- IC50 (MOLT-4 cells): 170 nM
- IC50 (UO-31 cells): 570 nM
- IC50 (OVCAR-5 cells): 520 nM
- IC50 (SF-268 cells): 220 nM
- IC50 (SNB-75 cells): 270 nM
- IC50 (A549 cells): 260 nM
- IC50 (TK-10 cells): 330 nM
- IC50 (NCI-H322M cells): 460 nM
- IC50 (HCC-2998 cells): 1410 nM
- IC50 (KM12 cells): 320 nM
- IC50 (ACHN cells): 850 nM
- IC50 (BT-549 cells): 180 nM
- IC50 (MDA-MB-231 cells): 260 nM
- IC50 (SF-539 cells): 260 nM
- IC50 (NCI-H460 cells): 320 nM
- IC50 (SK-Mel-5 cells): 250 nM
- IC50 (COLO205 cells): 400 nM
- IC50 (NCI-H23 cells): 610 nM
- IC50 (A498 cells): 460 nM
- IC50 (OVCAR-4 cells): 290 nM
- IC50 (SK-MEL-28 cells): 130 nM
- IC50 (SW-620 cells): 130 nM
- IC50 (M14 cells): 200 nM
- IC50 (HT29 cells): 310 nM
- IC50 (OVCAR-8 cells): 470 nM
- IC50 (SK-Mel-2 cells): 130 nM
- IC50 (T-47D cells): 250 nM
- IC50 (NCI-ADR/RES cells): 170 nM
- IC50 (K-562 cells): 180 nM
- IC50 (HCT-116 cells): 490 nM
- IC50 (SF-295 cells): 410 nM
- IC50 (UACC-257 cells): 160 nM
- IC50 (HOP-62 cells): 320 nM
- IC50 (OVCAR-3 cells): 170 nM
- IC50 (U251 cells): 610 nM
- IC50 (Hs578T cells): 210 nM
- IC50 (MALME-3M cells): 90 nM
- IC50 (SR cells): 80 nM
- IC50 (Caki-1 cells): 100 nM
- IC50 (NCI-H522 cells): 150 nM
- IC50 (HL-60 cells): 120 nM
- IC50 (IGR-OV1 cells): 420 nM
- IC50 (CCRF-CEM cells): 150 nM
- IC50 (HCT-15 cells): 230 nM
- IC50 (DU-145 cells): 840 nM
- IC50 (RPMI-8226 cells): 250 nM
- IC50 (PC-3 cells): 190 nM
- IC50 (MDA-MB-468 cells): 300 nM
- IC50 (EKVX cells): 280 nM
- IC50 (LOX IMVI cells): 390 nM
